Experimental data reported in the supplement of paper PMC4862054.
Values joined by “and” are separate entries in the source; they are usually repeats but may differ in a detail not shown here. Equal entries are not always repeated.

Tests used:
Conditions in all cases: incubation time: 72 h
CAL-148 = assay: normalised viability (% of control), CellTiter-Blue; higher = more viable cells (about 100 = DMSO control)
Method: (§1)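 DSRT, CellTiter-Blue viability, 72 h incubation. Signal is normalised to DMSO and benzethonium chloride controls. Value is the normalised response at dose 7.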

MDA-MB-453 = assay: as above
Method: as §1

HDQ-P1 = assay: as above
Method: as §1

CAL-85-1 = assay: as above
Method: as §1

DU-4475 = assay: as above
Method: as §1

CAL-51 [1] = assay: as above
Method: as §1

BT-474 = assay: normalised response (% of control), CellTox Green; higher = less cell death (100 = DMSO, 0 = benzethonium chloride kill control)
In short: (§2)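 Every value is a normalised signal taken at one concentration of a dilution series. Compound was placed in 384-well plates at 5 concentrations in 10-fold steps over a compound-specific 10,000-fold range, and 20 µl of breast cancer cell suspension was seeded onto it. After 72 h, CellTox Green fluorescence (485/520 nm) was measured first and CellTiter-Glo luminescence second, following 10 min at room temperature. Each plate was scaled to 0.1 % DMSO (100) and a positive kill control (0).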

MDA-MB-468 = assay: as above
In short: as §2

CAL-51 [2] = assay: as above
In short: as §2

MFM-223 = assay: as above
In short: as §2

Row | Compound | normalised viability (CAL-148) | normalised viability (MDA-MB-453) | normalised viability (HDQ-P1) | normalised viability (CAL-85-1) | normalised viability (DU-4475) | normalised viability (CAL-51 [1]) | normalised response (BT-474) | normalised response (MDA-MB-468) | normalised response (CAL-51 [2]) | normalised response (MFM-223)
1 | C[C@@H]1C[C@H]2[C@@H]3CCC4=CC(=O)C=C[C@]4(C)[C@@]3(F)[C@@H](O)C[C@]2(C)[C@@]1(O)C(=O)CO [Dexamethasone] (1000 nM) | 115% | 69.8% | 117% | 103% | 106% | 101% | 99.3% | 129% | 110% | 54.1%
2 | NC(=O)NO [Hydroxyurea] (10000 nM) | 112% | 108% | 103% | 102% | 101% | 104% | 100% | 81.7% | 69.1% | 79.9%
3 | NC(=O)c1cccc2cn(-c3ccc([C@@H]4CCCNC4)cc3)nc12 [MK-4827] (10000 nM) | – | – | – | – | – | – | 97.5% | 116% | 63.6% | 98.7%
4 | CCN(CC)CCOc1ccc(C(=C(Cl)c2ccccc2)c2ccccc2)cc1 [Clomifene] (10000 nM) | – | – | – | – | – | – | 5.17% | 93.8% | 109% | 40.9%
5 | Nc1nc(Cl)nc2c1ncn2[C@@H]1O[C@H](CO)[C@@H](O)[C@@H]1F [Clofarabine] (1000 nM) | 40.8% | 53.6% | 101% | 56.1% | 29% | 52.1% | 100% | 145% | 12.1% | 99%
6 | Cc1cc2c(F)c(Oc3ncnn4cc(OC[C@@H](C)O)c(C)c34)ccc2[nH]1 [Brivanib] (100 nM) | 111% | 90% | 110% | 87% | 104% | 93.7% | 100% | 100% | 99.4% | 102%
7 | CO[C@H](C(=O)[C@@H](O)[C@@H](C)O)[C@@H]1Cc2cc3cc(O[C@H]4C[C@@H](O[C@@H]5C[C@@H](O)[C@H](O)[C@@H](C)O5)[C@H](O)[C@@H](C)O4)c(C)c(O)c3c(O)c2C(=O)[C@H]1O[C@H]1C[C@@H](O[C@@H]2C[C@@H](O)[C@@H](O[C@@H]3C[C@](C)(O)[C@H](O)[C@@H](C)O3)[C@@H](C)O2)[C@H](O)[C@@H](C)O1 [Plicamycin] (10000 nM) | – | – | – | – | – | – | 96% | 54% | -45.3% | 88.4%
8 | C[C@@H]1C[C@H]2[C@@H]3CCC4=CC(=O)C=C[C@]4(C)[C@@]3(F)[C@@H](O)C[C@]2(C)[C@@]1(O)C(=O)CO [Dexamethasone] (10000 nM) | – | – | – | – | – | – | 94% | 135% | 103% | 101%
9 | CO[C@H](C(=O)[C@@H](O)[C@@H](C)O)[C@@H]1Cc2cc3cc(O[C@H]4C[C@@H](O[C@@H]5C[C@@H](O)[C@H](O)[C@@H](C)O5)[C@H](O)[C@@H](C)O4)c(C)c(O)c3c(O)c2C(=O)[C@H]1O[C@H]1C[C@@H](O[C@@H]2C[C@@H](O)[C@@H](O[C@@H]3C[C@](C)(O)[C@H](O)[C@@H](C)O3)[C@@H](C)O2)[C@H](O)[C@@H](C)O1 [Plicamycin] (1000 nM) | 2.42% and 2.71% | 8.78% and 7.08% | 32.4% and 21.1% | 6.52% and 5.6% | 0.92% and -0.07% | 4.92% and 5.48% | 100% | – | 94.9% | 81.3%
10 | NC(=O)NO [Hydroxyurea] (100000 nM) | – | – | – | – | – | – | 97.4% | 104% | 5.76% | 96.8%
11 | CCN(CC)CCOc1ccc(C(=C(Cl)c2ccccc2)c2ccccc2)cc1 [Clomifene] (1000 nM) | 110% | 108% | 128% | 97.6% | 103% | 85.4% | 97.6% | 68.9% | 110% | –
12 | Cn1nnc2c(C(N)=O)ncn2c1=O [Temozolomide] (10000 nM) | – | – | – | – | – | – | 101% | 103% | 104% | 97.3%
13 | CCCCCOC(=O)Nc1nc(=O)n([C@@H]2O[C@H](C)[C@@H](O)[C@H]2O)cc1F [Capecitabine] (1000 nM) | 105% and 102% | 86.8% and 94.9% | – | 79.7% and 96.2% | 87.4% and 85.9% | 106% and 104% | 99.1% | – | 113% | 99.4%
14 | C[C@]12C=CC(=O)C=C1CC[C@@H]1[C@@H]2C(=O)C[C@@]2(C)[C@H]1CC[C@]2(O)C(=O)CO [Prednisone] (10000 nM) | – | – | – | – | – | – | 101% | 99.5% | 109% | 100%
15 | CC[C@@H]1C(=O)N(C)c2cnc(Nc3ccc(C(=O)N[C@H]4CC[C@H](N5CCN(CC6CC6)CC5)CC4)cc3OC)nc2N1C(C)C [Volasertib] (1000 nM) | – | – | – | – | – | – | 94.7% | 118% | 22.4% | 70.6%
16 | CN1CCN(c2nc(C3=C(c4c[nH]c5ccccc45)C(=O)NC3=O)c3ccccc3n2)CC1 [Sotrastaurin] (10000 nM) | – | – | – | – | – | – | 98.4% | 194% | 94.2% | 101%
17 | O=C(c1cc(Cc2n[nH]c(=O)c3ccccc23)ccc1F)N1CCN(C(=O)C2CC2)CC1 [Olaparib] (1000 nM) | 84.3% | 79.4% | 104% | 85.8% | 81.1% | 88.6% | 92.9% | 122% | 89.5% | –
18 | COc1cc2c(Oc3ccc(NC(=O)C4(C(=O)Nc5ccc(F)cc5)CC4)cc3F)ccnc2cc1OCCCN1CCOCC1 [Foretinib] (1000 nM) | – | – | – | – | – | – | 97.1% | 37.6% | 37.9% | 84.4%
19 | Cc1c(N)nc([C@H](CC(N)=O)NC[C@H](N)C(N)=O)nc1C(=O)N[C@H](C(=O)N[C@H](C)[C@@H](O)[C@H](C)C(=O)N[C@H](C(=O)NCCc1nc(-c2nc(C(=O)NCCC[S+](C)C)cs2)cs1)[C@@H](C)O)[C@@H](OC1OC(CO)C(O)C(O)C1OC1OC(CO)C(O)C(OC(N)=O)C1O)c1cnc[nH]1 (some centres undefined) [Bleomycin] (10000 nM) | – | – | – | – | – | – | 93.2% | 201% | 43.9% | 94.4%
